How the values were obtained:
KCNQ3* (KCNQ3-A315T) = KCNQ3* (KCNQ3-A315T) (Homo sapiens, UniProt O43525, A315T); test: TEVC of KCNQ3* homomers expressed in Xenopus laevis oocytes; assay type: cell-based
KCNQ3/5 = molecular target: T1, KCNQ3/5 (Homo sapiens, UniProt O43525+Q9NR82); test: TEVC of KCNQ3/5 heteromers expressed in Xenopus laevis oocytes; assay type: cell-based; details: 5 µM each substance
T1 construct: expressed in transfected cells; host or cells: Xenopus laevis oocytes co-injected with cRNAs
Text: (§1) We generated cRNA transcripts encoding human KCNQ1, 2, 3, and 5 (wild-type and mutant) by in vitro transcription using the mMessage mMachine kit (Thermo Fisher Scientific, Waltham, MA, USA) according to manufacturer’s instructions, after vector linearization, from cDNA sub-cloned into expression vectors (pTLNx and pXOOM) incorporating Xenopus laevis β-globin 5’ and 3’ UTRs flanking the coding region to enhance translation and cRNA stability. Mutant KCNQ cDNAs were generated by Genscript (Piscataway, NJ, USA) and cRNAs made as above. We injected defolliculated stage V and VI Xenopus laevis oocytes (Xenoocyte, Dexter, MI, USA) with KCNQ cRNAs (2–10 ng) and incubated the oocytes at 16 °C in ND96 oocyte storage solution containing penicillin and streptomycin, with daily washing, for 2–4 days prior to two-electrode voltage-clamp (TEVC) recording.
(§2) We performed TEVC at room temperature using an OC-725C amplifier (Warner Instruments, Hamden, CT, USA) and pClamp10 software (Molecular Devices, Sunnyvale, CA, USA) 2–4 days after cRNA injection. We placed oocytes in a small-volume oocyte bath (Warner) and viewed them with a dissection microscope for cellular electrophysiology. We sourced chemicals from Sigma-Aldrich (St. Louis, MO, USA) and Combi-Blocks (San Diego, CA, USA). We studied effects of Salvia rosmarinus extracts and of compounds, solubilized directly in bath solution (in mM): 96 NaCl, 4 KCl, 1 MgCl2, 1 CaCl2, 10 HEPES (pH 7.6). We introduced extracts or compounds into the oocyte recording bath by gravity perfusion at a constant flow of 1 ml per minute for 3 min prior to recording. Pipettes were of 1-2 MΩ resistance when filled with 3 M KCl. […] We analyzed data using Clampfit (Molecular Devices) and Graphpad Prism software (GraphPad, San Diego, CA, USA), stating values as mean ± SEM. We plotted raw or normalized tail currents versus prepulse voltage and fitted with a single Boltzmann function:1 g=(A1−A2)/1+exp[V1/2−V/Vs]y+A2 where g is the normalized tail conductance, A1 is the initial value at -∞, A2 is the final value at +∞, V1/2 is the half-maximal voltage of activation and Vs the slope factor. We fitted activation and deactivation kinetics with single exponential functions.

KCNQ2/3 = molecular target: T2, KCNQ2/3 (Homo sapiens, UniProt O43525+O43526); test: TEVC of KCNQ2/3 heteromers expressed in Xenopus laevis oocytes; assay type: cell-based
T2 construct: expressed in transfected cells; host or cells: Xenopus laevis oocytes co-injected with cRNAs
Text: as §1
as §2, with “We” for “We performed TEVC at room temperature using an OC-725C amplifier (Warner Instruments, Hamden, CT, USA) and pClamp10 software (Molecular Devices, Sunnyvale, CA, USA) 2–4 days after cRNA injection. We”

[1] = Solubility limit for testing in bath solution; assay type: physicochemical
Text: We performed TEVC at room temperature using an OC-725C amplifier (Warner Instruments, Hamden, CT, USA) and pClamp10 software (Molecular Devices, Sunnyvale, CA, USA) 2–4 days after cRNA injection. We placed oocytes in a small-volume oocyte bath (Warner) and viewed them with a dissection microscope for cellular electrophysiology. We sourced chemicals from Sigma-Aldrich (St. Louis, MO, USA) and Combi-Blocks (San Diego, CA, USA). We studied effects of Salvia rosmarinus extracts and of compounds, solubilized directly in bath solution (in mM): 96 NaCl, 4 KCl, 1 MgCl2, 1 CaCl2, 10 HEPES (pH 7.6). We introduced extracts or compounds into the oocyte recording bath by gravity perfusion at a constant flow of 1 ml per minute for 3 min prior to recording. Pipettes were of 1-2 MΩ resistance when filled with 3 M KCl. We recorded currents in response to voltage pulses between −120 mV and +40 mV at 10 mV intervals from a holding potential of −80 mV, to yield current-voltage relationships and examine activation kinetics. We analyzed data using Clampfit (Molecular Devices) and Graphpad Prism software (GraphPad, San Diego, CA, USA), stating values as mean ± SEM. We plotted raw or normalized tail currents versus prepulse voltage and fitted with a single Boltzmann function:1 g=(A1−A2)/1+exp[V1/2−V/Vs]y+A2 where g is the normalized tail conductance, A1 is the initial value at -∞, A2 is the final value at +∞, V1/2 is the half-maximal voltage of activation and Vs the slope factor. We fitted activation and deactivation kinetics with single exponential functions.

KCNQ2 = KCNQ2 (Homo sapiens, UniProt O43526); test: TEVC of KCNQ2 homomers expressed in Xenopus laevis oocytes; assay type: cell-based
Text: as §1, §2

[2] = 5 µM each substance, table head prints KCNQ3*, text says KCNQ3/5

Chain of KCNQ3* (KCNQ3-A315T) (O43525 whole entry A315T): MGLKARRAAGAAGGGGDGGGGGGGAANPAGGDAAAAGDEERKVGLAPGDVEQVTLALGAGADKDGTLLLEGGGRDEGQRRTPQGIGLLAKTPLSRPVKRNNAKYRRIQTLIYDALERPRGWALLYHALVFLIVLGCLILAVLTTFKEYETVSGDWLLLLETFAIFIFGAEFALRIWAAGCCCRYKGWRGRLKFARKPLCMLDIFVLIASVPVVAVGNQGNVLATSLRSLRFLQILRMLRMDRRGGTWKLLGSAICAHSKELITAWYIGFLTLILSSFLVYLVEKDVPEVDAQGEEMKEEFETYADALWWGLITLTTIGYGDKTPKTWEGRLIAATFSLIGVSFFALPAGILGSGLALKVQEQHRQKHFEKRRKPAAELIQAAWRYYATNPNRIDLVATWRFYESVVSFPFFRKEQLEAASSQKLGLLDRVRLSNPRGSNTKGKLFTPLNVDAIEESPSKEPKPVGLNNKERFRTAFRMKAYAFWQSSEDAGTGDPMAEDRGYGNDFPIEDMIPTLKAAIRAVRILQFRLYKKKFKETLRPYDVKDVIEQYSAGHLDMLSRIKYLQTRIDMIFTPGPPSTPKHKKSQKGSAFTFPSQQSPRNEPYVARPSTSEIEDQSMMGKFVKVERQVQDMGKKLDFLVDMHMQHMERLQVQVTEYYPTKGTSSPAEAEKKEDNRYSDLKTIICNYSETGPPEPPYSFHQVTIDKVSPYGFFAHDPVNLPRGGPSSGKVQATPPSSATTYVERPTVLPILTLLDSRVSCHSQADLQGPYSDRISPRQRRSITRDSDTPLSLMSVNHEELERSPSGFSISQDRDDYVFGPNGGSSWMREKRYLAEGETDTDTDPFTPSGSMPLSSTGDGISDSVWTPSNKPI

C1=C2CCCN[C@H]2[C@@H]2C[C@H]1[C@H]1CCCCN1C2 [Aloperine, aloperine, reference compound]
Slope (KCNQ3* (KCNQ3-A315T); [2]): 6.96 ± 0.67 mV
V0.5 Normalized tail current (KCNQ3* (KCNQ3-A315T); [2]): -46.72 ± 0.78 mV
channel opening (KCNQ3/5): weak KCNQ3/5 opener

CC(=O)Oc1c(C(C)C)cc2c(c1OC(C)=O)C1(C(=O)O)CCCC(C)(C)C1CC2 (stereo not shown) [Carnosic acid diacetate]
Slope (KCNQ2/3; 10 µM): 6.11 ± 0.49 mV
V0.5 Normalized tail current (KCNQ2/3; 10 µM): -38.43 ± 0.56 mV
shift in V0.5act / opening (KCNQ2/3; 10 µM): only weakly negative-shifted
Slope (KCNQ3* (KCNQ3-A315T); 10 µM): 5.06 ± 0.63 mV
V0.5 Normalized tail current (KCNQ3* (KCNQ3-A315T); 10 µM): -50.38 ± 0.69 mV
shift in V0.5act / opening (KCNQ3* (KCNQ3-A315T); 10 µM): only weakly negative-shifted
solubility (highest testable concentration) ([1]; pH 7.6): solubility issues

CC(C)c1cc2c3c(c1O)OC(=O)C31CCCC(C)(C)C1CC2 (stereo not shown) [Carnosic gamma lactone, carnosic acid γ-lactone]
Slope (KCNQ2; 10 µM): 6.47 ± 0.40 mV
V0.5 Normalized tail current (KCNQ2; 10 µM): -46.18 ± 0.46 mV
Slope (KCNQ2/3; 10 µM): 6.78 ± 0.62 mV
V0.5 Normalized tail current (KCNQ2/3; 10 µM): -40.71 ± 0.71 mV
effect on EM of unclamped oocytes (KCNQ2/3; 10 µM): without hyperpolarizing
shift in V0.5act / opening (KCNQ2/3; 10 µM): −10 mV
Slope (KCNQ3* (KCNQ3-A315T); 10 µM): 4.81 ± 0.56 mV
V0.5 Normalized tail current (KCNQ3* (KCNQ3-A315T); 10 µM): -54.06 ± 0.70 mV
effect on EM of unclamped oocytes (KCNQ3* (KCNQ3-A315T); 10 µM): without hyperpolarizing
shift in V0.5act / opening (KCNQ3* (KCNQ3-A315T); 10 µM): −8.7 mV
solubility (highest testable concentration) ([1]; bath solution): solubility issues

CC(C)c1cc2c(c(O)c1O)[C@@]13CCCC(C)(C)[C@@H]1C[C@@H]2OC3=O [Carnosol]
Slope (KCNQ2; 100 µM): 3.97 ± 1.31 mV
V0.5 Normalized tail current (KCNQ2; 100 µM): -57.08 ± 1.31 mV
effect on EM of unclamped oocytes (KCNQ2; 100 µM): did not alter
Slope (KCNQ2/3; 100 µM): 5.82 ± 0.75 mV
V0.5 Normalized tail current (KCNQ2/3; 100 µM): -47.80 ± 0.87 mV
effect on EM of unclamped oocytes (KCNQ2/3; 100 µM): did not alter
shift in V0.5act (KCNQ2/3; 100 µM): no shift
Slope (KCNQ3* (KCNQ3-A315T); 100 µM): 5.00 ± 1.11 mV
V0.5 Normalized tail current (KCNQ3* (KCNQ3-A315T); 100 µM): -61.13 ± 1.28 mV
shift in V0.5act (KCNQ3* (KCNQ3-A315T); 100 µM): −11 mV
effect on EM of unclamped oocytes (KCNQ3* (KCNQ3-A315T); 100 µM (hesperidin 30 µM)): did not alter

COc1c(C(C)C)cc2c(c1OC)C13CCCC(C)(C)C1CC2OC3=O (stereo not shown) [Dimethylcarnosol, dimethyl carnosol]
Slope (KCNQ2/3; 100 µM): 6.71 ± 0.64 mV
V0.5 Normalized tail current (KCNQ2/3; 100 µM): -37.81 ± 0.73 mV
Slope (KCNQ3* (KCNQ3-A315T); 100 µM): 4.92 ± 0.40 mV
V0.5 Normalized tail current (KCNQ3* (KCNQ3-A315T); 100 µM): -49.25 ± 0.43 mV
hyperpolarization of EM (KCNQ3* (KCNQ3-A315T); 100 µM, unclamped oocytes): > 8 mV

COc1ccc([C@@H]2CC(=O)c3c(O)cc(O[C@@H]4O[C@H](CO[C@@H]5O[C@@H](C)[C@H](O)[C@@H](O)[C@H]5O)[C@@H](O)[C@H](O)[C@H]4O)cc3O2)cc1O [Hesperidin, hesperidin]
channel opening (KCNQ2; 30 µM): did not open
Slope (KCNQ2; 100 µM): 6.54 ± 0.41 mV
V0.5 Normalized tail current (KCNQ2; 100 µM): -45.73 ± 0.48 mV
Slope (KCNQ2/3; 30 µM): 7.73 ± 0.60 mV
V0.5 Normalized tail current (KCNQ2/3; 30 µM): -48.08 ± 0.71 mV
V0.5act shift (KCNQ2/3; 30 µM): −10.4 mV
V0.5 non-normalized tail current (KCNQ2/3; 30 µM): -48.30 ± 2.77 mV
effect on EM of unclamped oocytes (KCNQ2/3; 30 µM): hyperpolarized
Slope (KCNQ3* (KCNQ3-A315T); 30 µM): 4.65 ± 0.46 mV
V0.5 Normalized tail current (KCNQ3* (KCNQ3-A315T); 30 µM): -55.97 ± 0.57 mV
V0.5 non-normalized tail current (KCNQ3* (KCNQ3-A315T); 30 µM): -55.83 ± 1.97 mV
shift in V0.5act (KCNQ3* (KCNQ3-A315T); 30 µM): ~ −10 mV
effect on EM of unclamped oocytes (KCNQ3* (KCNQ3-A315T); 100 µM (hesperidin 30 µM)): hyperpolarized
solubility ([1]; oocyte recording bath solution, pH 7.6, aqueous buffer, read-out: solubility (highest testable concentration)): ≤ 30 µM

COC(=O)[C@]12CCCC(C)(C)[C@@H]1CCc1cc(C(C)C)c(O)c(O)c12 [Methyl carnosate, methyl carnosate]
Slope (KCNQ2/3; 10 µM): 10.46 ± 0.87 mV
V0.5 Normalized tail current (KCNQ2/3; 10 µM): -34.00 ± 0.97 mV
shift in V0.5act / opening (KCNQ2/3; 10 µM): did not open
Slope (KCNQ3* (KCNQ3-A315T); 10 µM): 4.63 ± 0.74 mV
V0.5 Normalized tail current (KCNQ3* (KCNQ3-A315T); 10 µM): -47.09 ± 0.74 mV
shift in V0.5act / opening (KCNQ3* (KCNQ3-A315T); 10 µM): only a weak activator
solubility (highest testable concentration) ([1]; pH 7.6): poor solubility
